These results are taken from article PMC8840081, “Phenylalanine-Based AMPA Receptor Antagonist as the Anticonvulsant Agent with Neuroprotective Activity—In Vitro and In Vivo Studies” (Molecules, 2022).

The subject of series [1] is SH-SY5Y neuroblastoma cells. Briefly: cell viability, MTS assay. The series is classed as cell-based, human. Particulars: 24 h incubation, 1–100 µM. How it is done:
(§1) All cell culture protocols and assay conditions were applied as we reported previously. SH-SY5Y (ATCC® CRL-2266™) cell line was purchased from ATCC (Manassas, VA, USA). IMR-32 (ATCC® CCL-127™) cell line was kindly provided by the Department of Oncogenomics, Academisch Medisch Centrum, Amsterdam, Holland. Before each test SH-SY5Y or IMR-32 cells were seeded in 96-well plates with transparent bottom at a concentration of 2.5 × 10^4 cells/well in 100 μL of respective cell culture medium and cultured for 24 h to reach 70% confluence. • Cell Viability
(§2) The CellTiter 96® AQueous Non-Radioactive Cell Proliferation Assay was purchased from Promega (Madison, WI, USA). After 24 h of cells incubation with compound 1 or 8 in the concentrations range 1–100 µM the MTS-based labeling mixture was added to each well and cells were incubated under the same conditions for 2–3 h. The absorbance was measured using a microplate reader EnSpire (PerkinElmer, Waltham, MA, USA) at 490 nm. All measurements were performed in triplicate and results are shown as mean ± SD. • Lactate Dehydrogenase Test

For series [2], the system named is IMR-32 neuroblastoma cells. Briefly: cell viability, MTS assay. In kind it is cell-based, human. The conditions noted are these: IMR-32, 24 h incubation, 1–100 µM. The procedure:
as §1, §2

For series [3], the target named is native AMPA receptors. The conditions noted are these: native AMPA receptors, rat brain membranes, mean of three experiments, cited from earlier work.
Series [4] has as its target T1, Human MAO-B (Homo sapiens, UniProt P27338).
T1 construct: purchased Merck KGaA (Darmstadt, Germany)
T1 sequence (P27338 1-520): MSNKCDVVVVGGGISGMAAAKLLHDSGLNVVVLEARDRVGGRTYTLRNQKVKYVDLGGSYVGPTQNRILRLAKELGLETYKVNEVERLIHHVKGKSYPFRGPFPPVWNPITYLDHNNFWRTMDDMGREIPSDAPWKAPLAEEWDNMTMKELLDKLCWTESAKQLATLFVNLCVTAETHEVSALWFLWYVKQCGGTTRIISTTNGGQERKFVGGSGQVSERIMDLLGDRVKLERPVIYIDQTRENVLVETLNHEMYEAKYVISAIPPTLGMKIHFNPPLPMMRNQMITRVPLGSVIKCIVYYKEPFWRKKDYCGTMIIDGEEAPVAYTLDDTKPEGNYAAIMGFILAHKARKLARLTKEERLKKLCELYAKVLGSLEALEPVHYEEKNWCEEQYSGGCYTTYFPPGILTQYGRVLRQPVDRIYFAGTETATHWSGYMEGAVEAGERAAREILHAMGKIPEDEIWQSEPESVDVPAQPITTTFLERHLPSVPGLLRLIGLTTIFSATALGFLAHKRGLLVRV
Briefly: MAO-B inhibition, Amplex Red Monoamine Oxidase kit. In kind it is biochemical. Particulars: 1 µM compound; % of full inhibition (pargyline 10 µM). How it is done: Human MAO-B was purchased from Merck KGaA (Darmstadt, Germany). The activity of compound 1 and 8 was measured in the presence of p-tyramine (200 μM). […] Firstly, inhibitors’ activity was measured in a concentration of 1 μM. […] For compounds that inhibited the enzyme by more than 50% further studies were conducted to obtain IC50 from concentration–response curves. All calculations were made in Microsoft Excel and GraphPadPrism software. All experiments were performed in duplicate and data are expressed as mean ± SEM.

The nature of series [5]: ferric reducing antioxidant power (FRAP) assay. Particulars: % of ascorbic acid activity; compounds and AA at 1 mM. How it is done:
The total antioxidant potential of aryl-substituted phenylalanine derivatives was determined using FRAP assay. The FRAP reagent was prepared first by mixing acetate buffer (300 mM, pH 3.6), a solution of 10 mM TPTZ (2,4,6-tripyridyl-s-triazine, Sigma-Aldrich, Inc., St. Louis, MO, USA) in 40 mM HCl and 20 mM of iron (III) chloride hexahydrate (FeCl3 × 6H2O, Chempur, Piekary Śląskie, Poland) at 10:1:1 (v/v/v). The FRAP reagent (190 μL) and 1 mM of tested compound (10 μL) was added next to each well, mixed and incubated for 30 min. The absorbance was measured using a microplate reader EnSpire (PerkinElmer, Waltham, MA USA) at 593 nm. AA (1 mM, AMARA, Kraków, Poland) was used as the reference antioxidant. The results were expressed as % of ascorbic acid activity (%AAA). Analyses were performed in triplicate. • ORAC-FL

Series [6] concerns SH-SY5Y neuroblastoma cells. Briefly: neuroprotection against 6-OHDA-induced LDH release. Particulars: compound 50 µM. In kind it is cell-based, human. How it is done:
as §1
(§3) CytoTox-ONE™ Homogeneous Membrane Integrity Assay, which based on the LDH release, was purchased from Promega (Madison, WI, USA). SH-SY5Y or IMR-32 cells were seeded in 96-well white plates with transparent bottom. For neuroprotective studies, the cells were preincubated first for 1 h with compound 1, 8 or reference antioxidants AA, TX (all at the concentration of 50 μM) and next the neurotoxin 6-OHDA (Sigma-Aldrich, Inc., St. Louis, MO, USA) was added at final concentration of 50 μM (SH-SY5Y assay) or 200 µM (IMR-32 assay). After 24 h of incubation, the CytoTox-ONE™ was added to each well and the cells were incubated next for 10 min at room temperature. The fluorescence was measured using a microplate reader EnSpire (PerkinElmer, Waltham, MA, USA) with an excitation wavelength of 560 nm and an emission wavelength of 590 nm. All measurements were performed in triplicate and results are shown as mean ± SD. The similar studies were also performed with SH-SY5Y cells injured by 100 μM of 6-OHDA (Figure S1, Supporting Materials). • ROS Assay

For series [7], the system named is IMR-32 neuroblastoma cells. Briefly: neuroprotection against 6-OHDA-induced LDH release. The series is classed as cell-based, human. The conditions noted are these: IMR-32, compound 50 µM, 1 h pretreatment, 200 µM 6-OHDA, 24 h. How it is done:
as §1, §3

Series [8] has as its system SH-SY5Y cells. Briefly: ROS assay (DCFH-DA), H2O2-induced ROS accumulation. In kind it is cell-based, human. Particulars: compound 50 µM, 500 µM H2O2, 3 h. How it is done:
as §1
During this assay SH-SY5Y cells were preincubated first for 1 h with 250 μM solution of DCFH-DA (Sigma-Aldrich, Inc., St. Louis, MO, USA) in HBSS buffer. After DCFH-DA was removed, cells were washed with HBSS and incubated next for 1 h with 50 μM of compound 1 or 8. Next, the H2O2 was added at final concentration 500 μM. After 3 h of incubation, the fluorescence was measured using a microplate reader EnSpire (PerkinElmer, Waltham, MA, USA) with an excitation wavelength of 486 nm and emission wavelength of 530 nm. All measurements were performed in triplicate and results are shown as mean ± SD.

A short description of series [9]: oxygen radical absorbance capacity fluorescent (ORAC-FL) assay. Particulars: Trolox equivalent, calculated at 5 µM of compounds and Trolox. How it is done:
The ORAC-FL was performed according to procedure described in the literature. The reagents used in this assay, TX, fluorescein and 2,2′-azobis(2-amidinopropane) dihydrochloride (AAPH), were purchased from Sigma-Aldrich, Inc., St. Louis, MO, USA. The prepared ORAC-FL reagent consisted of 0.3 μM of fluorescein and 100 µM of AAPH dissolved in PBS buffer. The compounds and the reference antioxidant TX were tested at the concentration 2.5 µM and the results were compared to the blank in which no antioxidant was present. The assays were performed in black 96-well plates. The fluorescence readings were taken by a microplate reader EnSpire (PerkinElmer, Waltham, MA, USA) every minute for a duration of 240 min. The excitation wavelength was 485 nm and the emission wavelength was 520 nm. The area under the fluorescence decay curve (AUC) was calculated next by GraphPad Prism™ software (version 5.01, San Diego, CA, USA). All measurements were performed in triplicate. The TX equivalent (TE) was calculated next using the following Equation (1):TE = [(AUCsample − AUCblank)/(AUCTX − AUCblank)] × [CTX/Csample](1)

Where only a bound is given, the exact number is not on record here.

`Nc1c(Cl)cc(CC(N)C(=O)O)cc1-c1ccc(O)cc1` (centres unmarked) [Compound 8]: the cell viability entry in [1] and in series [2] was “no influence on cell viability” each time. Also, the “[3H]AMPA Ki” value in [3] was “lack of detectable AMPA receptor affinity”. The Ki in [3] (read-out: [3H]AMPA Ki) was above 100 µM. In [4], the “MAO-B inhibition, screening” value was “No inhibitory activity”. In addition, the “FRAP (%AAA)” value in series [5] amounted to 48.19 %AAA. Further, the “6-OHDA-induced release of LDH (neuroprotection)” value in series [6] (100 µM 6-OHDA) is “neuroprotective effect was not observed”; in [6] (1 h pretreatment, 50 µM 6-OHDA, 24 h), “no statistically significant neuroprotective effect”; in [7], “no statistically significant neuroprotective effect”. For the same compound, the “intracellular ROS level” value in series [8] is given as “statistically significant decrease”. The “ORAC (TE)” value in series [9] is given as 7.56 TE.
